Eleven compounds from ChEMBL document CHEMBL1201862, “PubChem BioAssay data set” (2004) can be followed below.

Test systems include HOP-62; IGROV-1; MOLT-4; KM12; A549; SK-MEL-5; SW-620; HOP-92; SK-OV-3; HT-29; RPMI-8226; Malme-3M; SF-295; CAKI-1; HCC 2998; SK-MEL-2; OVCAR-8; M14; HCT-15; Hs-578T.
Holding throughout (assay): NCI anticancer screen, dose series, 48 h

Molecules are shown by their SMILES.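 Results reflect a 48-hour exposure of cells in 96-well plates to compound at five concentrations. GI50 = concentration required for 50% inhibition of growth.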 Activity calls are given as the source filed them. Cut-off read from the data, not from the text of the source: active = GI50 up to about 1.1 µM and inactive = higher.

For `c1cnc2c3[nH]cc4[nH]c5ccccc5c4c-3nc2c1`, the GI50 in the test on HOP-62 was 40.4 µM (inactive); in the test with IGROV-1, > 100 µM (inactive); with MOLT-4 it was 22.7 µM (inactive); with KM12 it was 36.1 µM (inactive); in the test with A549, > 100 µM (inactive); in the test with SK-MEL-5, > 100 µM (inactive). Further, the GI50 with SW-620 is 55.2 µM (inactive); in the test with HOP-92, 16.9 µM (inactive); in the test on SK-OV-3 it was > 100 µM (inactive); in the test with HT-29, 29.8 µM (inactive); in the test with RPMI-8226, 27.6 µM (inactive); with Malme-3M, 28.4 µM (inactive). For the same compound, the GI50 was 47.9 µM (inactive) with SF-295; 64.1 µM (inactive) in the test on CAKI-1; 52.4 µM (inactive) in the test with HCC 2998; 30.7 µM (inactive) with SK-MEL-2; 45.1 µM (inactive) in the test on OVCAR-8; > 100 µM (inactive) in the test on M14. In addition, in the test on HCT-15, the GI50 was 67.5 µM.

In the case of `Cc1cc(Cl)ccc1NC(=O)C(=O)Cc1nc2ccccc2o1`, the GI50 with HOP-62, in the test on IGROV-1, in the test on MOLT-4, in the test on KM12, with A549 and in the test with SK-MEL-5 was > 100 µM (inactive) throughout. Moreover, the GI50 with SW-620, in the test on HOP-92, with SK-OV-3, in the test with HT-29, with RPMI-8226 and in the test on Malme-3M was > 100 µM (inactive) throughout. Also, the GI50 with SF-295, in the test with CAKI-1, in the test on HCC 2998, in the test on SK-MEL-2, in the test with OVCAR-8 and with M14 was > 100 µM (inactive) in each case. For the same compound, in the test on HCT-15, the GI50 was over 100 µM.

Consider `Cc1c2c(n(C)c1C)C(=O)C1C(C2=O)C2(C)c3ccccc3C1(C)c1ccccc12` (stereo not given), for which the GI50 in the test on HOP-62, in the test with Hs-578T, with IGROV-1, in the test on MOLT-4, in the test on KM12 and in the test with SK-MEL-5 was > 100 µM (inactive) throughout. Also, the GI50 with SW-620, in the test on SK-OV-3, with HT-29, in the test on RPMI-8226, in the test with Malme-3M and in the test with SF-295 was > 100 µM (inactive) throughout. Further, the GI50 in the test on SK-MEL-2 was > 100 µM (inactive); with OVCAR-8, > 100 µM (inactive); in the test with M14, > 100 µM (inactive); in the test with HCT-15, over 100 µM.

On to `Cc1cc(Cl)ccc1C1OC(=O)c2c1ccc1ccccc21` (stereo not given), for which the GI50 was > 100 µM (inactive) with HOP-62; > 100 µM (inactive) in the test on IGROV-1; > 100 µM (inactive) with MOLT-4; > 100 µM (inactive) in the test with KM12; > 100 µM (inactive) in the test with A549; 58.2 µM (inactive) in the test on SK-MEL-5. Also, the GI50 with SW-620, in the test with HOP-92, in the test with SK-OV-3, in the test with HT-29, in the test with RPMI-8226 and in the test with Malme-3M was > 100 µM (inactive) in each case. Besides, the GI50 with SF-295, in the test on CAKI-1, in the test on HCC 2998, in the test on SK-MEL-2, with OVCAR-8 and in the test with M14 was > 100 µM (inactive) throughout. The GI50 with HCT-15 is over 100 µM.

Consider `Cc1ccc(S(=O)(=O)N/N=C/C(C)C)cc1`, for which the GI50 in the test on HOP-62, in the test on IGROV-1, in the test with MOLT-4, in the test on KM12, with A549 and in the test on SK-MEL-5 was > 100 µM (inactive) in each case. Further, the GI50 with SW-620 was > 100 µM (inactive); in the test on HOP-92, 24.9 µM (inactive); in the test with SK-OV-3, > 100 µM (inactive); in the test with HT-29 it was > 100 µM (inactive); in the test on RPMI-8226, > 100 µM (inactive); with Malme-3M, > 100 µM (inactive). The GI50 in the test with SF-295, in the test with CAKI-1, in the test with HCC 2998, with SK-MEL-2, with OVCAR-8 and with M14 was > 100 µM (inactive) in each case. In the test with HCT-15, this compound showed a GI50 of over 100 µM.

As to `COc1ccc2c(C)cc(=O)oc2c1OC`, the GI50 with HOP-62, in the test on Hs-578T, with IGROV-1, in the test with MOLT-4, in the test on KM12 and in the test on A549 was > 100 µM (inactive) throughout. The GI50 in the test with SK-MEL-5, with SW-620, with SK-OV-3, in the test on HT-29, in the test with RPMI-8226 and in the test on Malme-3M was > 100 µM (inactive) in each case. The GI50 in the test on SF-295 is > 100 µM (inactive); in the test on SK-MEL-2, > 100 µM (inactive); with OVCAR-8 it was > 100 µM (inactive); with M14, > 100 µM (inactive); in the test with HCT-15, over 100 µM.

Take `Nc1nc(S)nc(C(=O)Nc2nccs2)c1-c1ccccc1`: the GI50 in the test with HOP-62, in the test on IGROV-1, in the test on MOLT-4, with KM12, in the test with A549 and in the test on SK-MEL-5 was > 100 µM (inactive) in each case. Further, the GI50 with SW-620, in the test on HOP-92, in the test with SK-OV-3, in the test with HT-29, in the test with RPMI-8226 and in the test on Malme-3M was > 100 µM (inactive) in each case. Further, the GI50 in the test on SF-295, with CAKI-1, with HCC 2998, with SK-MEL-2, with OVCAR-8 and in the test on M14 was > 100 µM (inactive) in each case. This compound also showed a GI50 in the test on HCT-15 of over 100 µM.

For the compound `CN(C)c1ccc(/C=C2\C[C@H]3[C@@H]4CC=C5C[C@@H](O)CC[C@]5(C)[C@H]4CC[C@]3(C)[C@H]2O)cc1`, the GI50 in the test on HOP-62 was 29.4 µM (inactive); in the test on Hs-578T it was 23.4 µM (inactive); with IGROV-1, 19.2 µM (inactive); in the test on MOLT-4, 32 µM (inactive); in the test with KM12 it was 36 µM (inactive); with A549, 13.6 µM (inactive). Moreover, the GI50 in the test with SK-MEL-5 is 17.6 µM (inactive); in the test on SW-620, 24.8 µM (inactive); in the test on SK-OV-3, 31.2 µM (inactive); in the test on HT-29, 8.09 µM (inactive); in the test with RPMI-8226, 29.9 µM (inactive); in the test on Malme-3M, 19.9 µM (inactive). Also, the GI50 with SF-295 was 20 µM (inactive); with SK-MEL-2, 20.9 µM (inactive); in the test on OVCAR-8, 3.84 µM (inactive); in the test on M14, 18.2 µM (inactive); in the test with HCT-15 it was 15.7 µM.

Turning to `CC(=O)c1ccc2c(c1)oc(=O)n2CCN1CCCCC1`, the GI50 in the test on HOP-62 is > 100 µM (inactive); in the test with Hs-578T, 93.5 µM (inactive); with IGROV-1 it was > 100 µM (inactive); in the test with MOLT-4, > 100 µM (inactive); with KM12 it was > 100 µM (inactive); in the test on SK-MEL-5 it was > 100 µM (inactive). Moreover, the GI50 with SW-620 was > 100 µM (inactive); in the test with SK-OV-3, > 100 µM (inactive); in the test on HT-29, > 100 µM (inactive); with RPMI-8226 it was > 100 µM (inactive); in the test on Malme-3M it was 2.79 µM (inactive); with SF-295, > 100 µM (inactive). For the same compound, the GI50 with CAKI-1 was > 100 µM (inactive); in the test on SK-MEL-2 it was > 100 µM (inactive); in the test with OVCAR-8, > 100 µM (inactive); with M14, > 100 µM (inactive); in the test on HCT-15 it was over 100 µM.

As for `O=C1c2ccccc2C(=O)N1C/C=N/NS(=O)(=O)c1ccc(Br)cc1`, the GI50 in the test with HOP-62, with IGROV-1, with MOLT-4, in the test on KM12, in the test on A549 and in the test with SK-MEL-5 was > 100 µM (inactive) throughout. Besides, the GI50 in the test on SW-620 was > 100 µM (inactive); in the test on HOP-92, 11 µM (inactive); in the test with SK-OV-3 it was > 100 µM (inactive); with HT-29 it was > 100 µM (inactive); with RPMI-8226, > 100 µM (inactive); in the test on Malme-3M it was > 100 µM (inactive). Moreover, the GI50 with SF-295 is > 100 µM (inactive); with CAKI-1 it was 74.1 µM (inactive); in the test with HCC 2998 it was > 100 µM (inactive); in the test on SK-MEL-2, > 100 µM (inactive); in the test with OVCAR-8 it was > 100 µM (inactive); in the test on M14, > 100 µM (inactive). The GI50 in the test with HCT-15 was over 100 µM.

With `COc1cc2c(oc(=O)c3c4oc([Si](C)(C)C)cc4cc(OC)c23)c2cccc(OCc3ccccc3)c12`, the GI50 in the test with HOP-62 is 18.8 µM (inactive); with IGROV-1, 50.5 µM (inactive); in the test with MOLT-4, > 71.9 µM (inactive); in the test on KM12 it was > 64.3 µM (inactive); in the test with A549, 44 µM (inactive); in the test on SK-MEL-5 it was 38 µM (inactive). Moreover, the GI50 with SW-620 is 68.9 µM (inactive); in the test on HOP-92, 34.8 µM (inactive); in the test with SK-OV-3, 38.3 µM (inactive); in the test with HT-29 it was 48.9 µM (inactive); in the test with RPMI-8226 it was 28.4 µM (inactive); in the test with Malme-3M it was 32.1 µM (inactive). In addition, the GI50 is 19 µM (inactive) in the test with SF-295; 21.4 µM (inactive) with CAKI-1; > 64.3 µM (inactive) in the test on HCC 2998; 33.7 µM (inactive) in the test on SK-MEL-2; 38.5 µM (inactive) in the test on OVCAR-8; 26.3 µM (inactive) in the test with M14. The GI50 in the test on HCT-15 was over 70.5 µM.
